Data as given in US9211292B2, “Preventing or reducing drug abuse and overdose events” (ALITAIR PHARMACEUTICALS INC, priority 2011, dated 2015).

Assay: Dissolution testing, simulated empty stomach (USP 31 NF26 Apparatus 2, 0.1N HCl)
Format: physicochemical
Details: for HCBT Released / HCBT Released, Percent of Original Dose: 80 mg dose, 0.1N HCl 250 ml 37° C.
Experimental: The resinate or pure HCBT was weighed to determine the dose to be tested. The resinate or pure HCBT powder was added directly to the vessel for dissolution testing without the use of a capsule or tablet and its associated excipients. The conditions in the first stage to simulate dissolution in an empty stomach were as follows:
The above resinate of the invention having an 11.5% HCBT loading was tested at dosages of 10 mg, 40 mg and 80 mg HCBT. The resinate of the invention having 60.7% HCBT loading was tested at dosages of 10 and 80 mg HCBT. […] A given dose was placed in the dissolution apparatus and stirred for a given length of time. At the end of that time, the quantity of HCBT released was determined by high pressure liquid chromatography.

Structure (SMILES): COc1ccc2c3c1O[C@H]1C(=O)CC[C@H]4[C@@H](C2)N(C)CC[C@]314 [Pure HCBT, Hydrocodone bitartrate]
- drug released (FIG. 1) (80 mg dosage in powder form, simulated empty stomach): released essentially all of the drug
- HCBT Released (15 min): 78.8 mg
- HCBT Released, Percent of Original Dose (15 min): 98.6% of Original Dose
- HCBT Released (30 min): 79.2 mg
- HCBT Released, Percent of Original Dose (30 min): 99.0% of Original Dose
- HCBT Released (45 min): 79.4 mg
- HCBT Released, Percent of Original Dose (45 min): 99.2% of Original Dose
- HCBT Released (60 min): 79.6 mg
- HCBT Released, Percent of Original Dose (60 min): 99.5% of Original Dose
